In article PMC8070256, “Feasibility of Developing Radiotracers for MDM2: Synthesis and Preliminary Evaluation of an ^18F-Labeled Analogue of the MDM2 Inhibitor SP-141” (Pharmaceuticals, 2021):

Legend:
HepG2 cells [1] = test: Cell uptake of [^18F]1 in HepG2 cells after 21 h pretreatment; format: cell-based, human; details: HepG2 cells
Experimental: (§1) The ability of [^18F]1 to bind to MDM2 expressing human tumor cells was assessed using two wild-type p53 cell lines, MCF-7 breast adenocarcinoma, and HepG2 hepatocellular carcinoma. These cell lines have significant MDM2 expression levels and have been utilized previously for assessing potential MDM2 inhibitors, including SP-141 [12, 24, 25]. […] Thus, to examine the uptake and specificity of [^18F]1 by MDM2 expressing tumor cell lines, MCF-7 and HepG2 cells were treated with 0, 1, 5, or 10 µM SP-141 for 21 h, and then assessed for [^18F]1 uptake for 1 h.
Cell uptake studies of [^18F]1 were conducted using MCF-7 and HepG2 cell lines. […] Next, the incubation medium was removed, cells were rinsed with cold PBS (3 × 0.5 mL) and lysed using Cell Culture Lysis Reagent (0.25 mL, Promega Corporation, Madison, WI, USA) followed by a rinse with PBS (0.125 mL/well). For each well, the supernatant, PBS washes, and the cell lysate were measured for radioactivity in an automated gamma counter (Wallac Wizard™, Perkin Elmer, Waltham, MA, USA). Subsequently, cell lysates were analyzed for protein concentration using the Bradford assay (Bio-Rad, Hercules, CA, USA). Cell uptake for each well was normalized to its protein content and expressed as % uptake/mg protein. Results are presented as mean ± SD for three wells.

MCF-7 cells [2] = test: Cell uptake of [^18F]1 in MCF-7 cells after 21 h pretreatment; format: cell-based, human; details: MCF-7 cells
Experimental: as §1
Cell uptake studies of [^18F]1 were conducted using MCF-7 and HepG2 cell lines. Briefly, cells plated in 24-well plates (200,000/well) were treated with varying concentrations of SP-141 (1, 5, or 10 µM) or vehicle for 21 h and incubated with a fresh medium containing [^18F]1 (~18.5 kBq in 0.5 mL medium) for 1 h. Next, the incubation medium was removed, cells were rinsed with cold PBS (3 × 0.5 mL) and lysed using Cell Culture Lysis Reagent (0.25 mL, Promega Corporation, Madison, WI, USA) followed by a rinse with PBS (0.125 mL/well). For each well, the supernatant, PBS washes, and the cell lysate were measured for radioactivity in an automated gamma counter (Wallac Wizard™, Perkin Elmer, Waltham, MA, USA). Subsequently, cell lysates were analyzed for protein concentration using the Bradford assay (Bio-Rad, Hercules, CA, USA). Cell uptake for each well was normalized to its protein content and expressed as % uptake/mg protein. Results are presented as mean ± SD for three wells.

MDM2 gene expression = details: AML patients, peripheral blasts, after 10 days of treatment; cited from earlier work
MCF-7 cells [3] = test: [^18F]1 uptake with or without co-incubated 100 µM SP-141, MCF-7; format: cell-based, human; details: 100 µM SP-141 co-incubation, 15 min
Experimental: (§2) Because MDM2 is a transcriptional target of p53, stabilization of p53 levels after MDM2 inhibition with SP-141 is expected to cause a temporary increase in MDM2 protein expression via the autoregulatory loop. Thus, we hypothesized that treatment of tumor cells with high concentrations of SP-141 for shorter periods (e.g., <4 h) might induce MDM2 expression as a consequence of p53 activation, whereas low concentrations of SP-141 (≤1 µM) and longer incubation times (≥20 h) appear to promote MDM2 degradation in vitro. To investigate this, MCF-7 and HepG2 cells were incubated with or without 100 µM SP-141 for 15–120 min, and uptake was measured as a percentage input dose for each time point. Hep3B, a p53 null cell line, was used as a negative control. […]
(§3) For these studies, MCF-7 (WT-p53), HepG2 (WT-p53), and Hep3B (p53 null) cells were plated in 24-well plates (20,000/well) and incubated with [^18F]1 (~18.5 kBq in 0.5 mL) with or without 100 µM SP-141 for 15–120 min under standard cell culture conditions. […] The radioactivity in supernatants, wash fractions, and cell lysates was counted for each well using the gamma counter (Wallac Wizard). Cell uptake was calculated as the percentage of the input dose for the two treatment conditions (with/without 100 µM SP-141).

MCF-7 xenograft = test system: MCF-7 xenograft; design: method as in PMID 25271708, PMID 31832522, PMID 29354330; details: 40 mg/kg i.p., 5 days a week, cited from earlier work
MDM2 = details: read-out: Binding affinity determined by SPR analysis; cited from earlier work
MCF-7 cells [4] = test system: MCF-7 cells; design: method as in PMID 25271708, PMID 31832522; details: 0.5–1.0 µM for 24 h; cited from earlier work
HepG2 cells [5] = test system: HepG2 cells; design: method as in PMID 25271708, PMID 31832522; details: 0.5–1.0 µM for 24 h; cited from earlier work
HepG2 xenograft = test system: HepG2 xenograft; design: method as in PMID 25271708, PMID 31832522, PMID 29354330; details: 40 mg/kg i.p., 5 days a week, cited from earlier work
MDM2 protein = molecular target: MDM2 protein; design: method as in PMID 25271708; details: read-out: Binding affinity (Ki); cited from earlier work
HepG2 cells [6] = test: [^18F]1 uptake with or without co-incubated 100 µM SP-141, HepG2; format: cell-based, human; details: 100 µM SP-141 co-incubation, 15 min
Experimental: as §2, §3

Hep3B cells = test: [^18F]1 uptake with or without co-incubated 100 µM SP-141, Hep3B; format: cell-based, human; details: Hep3B (p53 null) cells, 100 µM SP-141 co-incubation, 15-120 min
Experimental: as §2, §3

COc1ccc(C2=N[C@@H](c3ccc(Cl)cc3)[C@@H](c3ccc(Cl)cc3)N2C(=O)N2CCNC(=O)C2)c(OC(C)C)c1 [Nutlin-3, reference compound]
Change of [^18F]1 uptake after pretreatment (HepG2 cells [1]; 10 µM Nutlin-3, 21 h): significant increases
Inhibitory effect of pretreatment on [^18F]1 uptake (HepG2 cells [1]; Nutlin-3 1-10 µM for 21 h): did not show any inhibitory effects
Change of [^18F]1 uptake after pretreatment (MCF-7 cells [2]; 1 and 5 µM Nutlin-3, 21 h): significant increases
Inhibitory effect of pretreatment on [^18F]1 uptake (MCF-7 cells [2]; Nutlin-3 1-10 µM for 21 h): did not show any inhibitory effects

CCOc1cc(C(C)(C)C)ccc1C1=N[C@@](C)(c2ccc(Cl)cc2)[C@@](C)(c2ccc(Cl)cc2)N1C(=O)N1CCN(CCCS(C)(=O)=O)CC1 [RG7112]
Increase in median MDM2 gene expression levels (MDM2 gene expression): 2.8 fold

COc1ccc2[nH]c3c(-c4cccc5ccccc45)nccc3c2c1 [SP-141, 6-Methoxy-1-(naphthalen-1-yl)-9H-pyrido[3,4-b]indole]
Increase of [^18F]1 uptake compared to cells incubated with only [^18F]1 (MCF-7 cells [3]): 1.2 fold
Tumor growth (MCF-7 xenograft; after 42 days): inhibited tumor growth significantly
MDM2 levels in tumors (MCF-7 xenograft): decreased MDM2 levels in tumors
Kd (MDM2): 43 nM
Effect of SP-141 pretreatment on [^18F]1 uptake (HepG2 cells [1]; 10 µM SP-141 for 21 h): no noticeable effects
Cellular MDM2 levels (MCF-7 cells [4]): decreases cellular MDM2 levels
Cellular MDM2 levels (HepG2 cells [5]): decreases cellular MDM2 levels
Tumor growth (HepG2 xenograft; after 20 days): inhibited tumor growth significantly
MDM2 levels in tumors (HepG2 xenograft): decreased MDM2 levels in tumors
Ki (MDM2 protein): 28 ± 6 nM
Decrease of [^18F]1 uptake compared to vehicle-treated cells (MCF-7 cells [2]; 1 µM SP-141 for 21 h): 76%
Increase of [^18F]1 uptake compared to cells incubated with only [^18F]1 (HepG2 cells [6]): 1.4 fold
Effect of SP-141 on [^18F]1 uptake (Hep3B cells): no effect
